From patent US20230416225A1, “DIAMINOPYRIMIDINE CARBOXAMIDE INHIBITORS OF HPK1” (MERCK SHARP & DOHME LLC, priority 2020, published 2023)

Target: T1, Human HPK1, catalytic domain (Homo sapiens, UniProt Q92918)
T1 construct: purchased Carna
T1 sequence (Q92918 1-346): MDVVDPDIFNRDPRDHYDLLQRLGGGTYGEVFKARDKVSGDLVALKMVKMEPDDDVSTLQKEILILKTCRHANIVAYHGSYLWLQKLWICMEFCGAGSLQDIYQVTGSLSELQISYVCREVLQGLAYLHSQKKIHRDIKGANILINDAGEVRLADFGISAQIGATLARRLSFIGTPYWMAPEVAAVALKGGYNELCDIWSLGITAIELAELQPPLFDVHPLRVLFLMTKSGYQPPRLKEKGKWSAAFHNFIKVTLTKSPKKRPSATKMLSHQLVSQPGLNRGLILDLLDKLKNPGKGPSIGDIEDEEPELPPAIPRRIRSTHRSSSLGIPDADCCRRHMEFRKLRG
Test: HPK1-SLP76 TR-FRET assay
Type: biochemical
Settings: 75 pM HPK1, 10 uM ATP, 10 nM SLP76, 30 min compound pre-incubation

SMILES	IC50 [nM]
Cn1cc([C@@H]2C[C@H]2C(=O)Nc2ncc(C(N)=O)c(Nc3ccccc3Br)n2)cn1 (racemic) [Example 22-1, 4-((2-bromophenyl)amino)-2-((trans)-2-(1-methyl-1H-pyrazol-4-yl)cyclopropane-1-carboxamido)pyrimidine-5-carboxamide]	370
COc1cc2c(cc1Nc1ncc(C(N)=O)c(Nc3c(F)cccc3C(C)OC)n1)CN(C)CC2 (racemic) [Example 23-1, (RAC)-4-((2-fluoro-6-(1-methoxyethyl)phenyl)amino)-2-((6-methoxy-2-methyl-1,2,3,4-tetrahydroisoquinolin-7-yl)amino)pyrimidine-5-carboxamide]	0.22
COc1cc2c(cc1Nc1ncc(C(N)=O)c(Nc3c(F)cccc3C(C)O)n1)CN(C)CC2 (racemic) [Example 23-2, (RAC)-4-((2-fluoro-6-(1-hydroxyethyl)phenyl)amino)-2-((6-methoxy-2-methyl-1,2,3,4-tetrahydroisoquinolin-7-yl)amino)pyrimidine-5-carboxamide]	0.82
COc1cc2c(cc1Nc1ncc(C(N)=O)c(Nc3ccccc3Br)n1)CN(C1CC(CO)C1)CC2 (single isomer, unassigned) [Example 9-4, 4-((2-bromophenyl)amino)-2-((2-(3-(hydroxymethyl)cyclobutyl)-6-methoxy-1,2,3,4-tetrahydroisoquinolin-7-yl)amino)pyrimidine-5-carboxamide]	0.18
COc1cc2c(cc1Nc1ncc(C(N)=O)c(Nc3ccccc3C(F)(F)F)n1)C(C1CC1)N(C)CC2 (single isomer, unassigned) [Example 20-2, 2-((1-cyclopropyl-6-methoxy-2-methyl-1,2,3,4-tetrahydroisoquinolin-7-yl)amino)-4-((2-(trifluoromethyl)phenyl)amino)pyrimidine-5-carboxamide]	0.12
COc1cc2c(cc1Nc1ncc(C(N)=O)c(Nc3cccc(CN)c3)n1)CN(C)CC2 [Example 2-2, 4-{[3-(aminomethyl)phenyl]-amino}-2-[(6-methoxy-2-methyl-1,2,3,4-tetrahydroisoquinolin-7-yl)amino]pyrimidine-5-carboxamide]	0.34
COc1cc2c(cc1Nc1ncc(C(N)=O)c(Nc3ccccc3CN)n1)CN(C)CC2 [Example 2-3, 4-{[2-(aminomethyl)phenyl]-amino}-2-[(6-methoxy-2-methy1-1,2,3,4-tetrahydroisoquinolin-7-yl)amino]pyrimidine-5-carboxamide]	1.64
CNCc1ccccc1Nc1nc(Nc2cc3c(cc2OC)CCN(C)C3)ncc1C(N)=O [Example 2-4, 2-[(6-methoxy-2-methyl-1,2,3,4-tetrahydroisoquinolin~7-yl)amino]-4-({2-[(methylamino)methyl]-phenyl}amino)pyrimidine-5-carboxamide]	0.63
COc1cc2c(cc1Nc1ncc(C(N)=O)c(Nc3cccc(CNC(=O)C4(F)CC4)c3)n1)CN(C)CC2 [Example 3-1, 4~[(3~{[(1-fluorocyclo-propane-1-carbonyl)amino]-methyl}phenyl)amino]-2-[(6-methoxy-2-methyl-1,2,3,4-tetrahydroiso-quinolin-7-yl)amino]-pyrimidine-5-carboxamide]	0.56
Cc1cccc(F)c1Nc1nc(Nc2cc3c(cc2Cl)CCN(C)C3)ncc1C(N)=O [Example 4-5, 2-[(6-chloro-2-methyl-1,2,3,4-tetrahydroisoquinolin-7-yl)amino]-4-[(2-fluoro-6-methylphenyl)amino] pyrimidine-5-carboxamide]	0.61
COc1cc2c(cc1Nc1ncc(C(N)=O)c(Nc3ccc(F)cc3F)n1)CN(C)CC2 [Example 4-10, 4-[(2,4-difluorophenyl)amino]-2-[(6-methoxy-2-methyl-1,2,3,4-tetrahydroisoquinolin-7-yl)amino]pyrimidine-5-carboxamide]	1.34
COc1cc2c(cc1Nc1ncc(C(N)=O)c(Nc3cc(F)ccc3F)n1)CN(C)CC2 [Example 4-11, 4-[(2,5-difluorophenyl)amino]-2-[(6-methoxy-2-methyl-1,2,3,4-tetrahydroisoquinolin-7-yl)amino]pyrimidine-5-carboxamide]	0.55
COc1cc2c(cc1Nc1ncc(C(N)=O)c(Nc3cccc(Cl)c3F)n1)CN(C)CC2 [Example 4-12, 4-[(3-chloro-2-fluorophenyl)amino]-2-[(6-methoxy-2-methyl-1,2,3,4-tetrahydroisoquinolin-7-yl)amino]pyrimidine-5-carboxamide]	0.65
COc1cc2c(cc1Nc1ncc(C(N)=O)c(Nc3cccc(C)c3F)n1)CN(C)CC2 [Example 4-14]	0.18
COc1cc(F)c(Nc2nc(Nc3cc4c(cc3OC)CCN(C)C4)ncc2C(N)=O)c(F)c1 [Example 4-15, 4-[(2,6-difluoro-4-methoxyphenyl)amino]-2-[(6-methoxy-2-methyl-1,2,3,4-tetrahydroisoquinolin-7-yl)amino]pyrimidine-5-carboxamide]	0.53
COc1cc2c(cc1Nc1ncc(C(N)=O)c(Nc3c(O)cccc3F)n1)CN(C)CC2 [Example 4-17, 4-[(2-fluoro-6-hydroxyphenyl)amino]-2-[(6-methoxy-2-methyl-1,2,3,4-tetrahydroisoquinolin-7-yl)amino]pyrimidine-5-carboxamide]	1.01
COc1cc2c(cc1Nc1ncc(C(N)=O)c(Nc3cc(C)ccc3Cl)n1)CN(C)CC2 [Example 4-18, 4-[(2-chloro-5-methylphenyl)amino]-2-[(6-methoxy-2-methyl-1,2,3,4-tetrahydroisoquinolin-7-yl)amino]pyrimidine-5-carboxamide]	0.48
COc1cc2c(cc1Nc1ncc(C(N)=O)c(Nc3ccc(C)cc3Cl)n1)CN(C)CC2 [Example 4-19, 4-[(2-chloro-4-methylpheny 1)amino]-2-[(6-methoxy-2-methyl-1,2,3,4-tetrahydroisoquinolin-7-yl)amino]pyrimidine-5-carboxamide]	0.38

More lines, in order of falling IC50, values ahead:

IC50 [nM]	SMILES
5.65	COc1cc2c(cc1Nc1ncc(C(N)=O)c(Nc3c(F)cccc3C#N)n1)CN(C)CC2 [Example 4-9]
2.4	COc1cc2c(cc1Nc1ncc(C(N)=O)c(Nc3ccc(F)c(F)c3F)n1)CN(C)CC2 [Example 4-13, 2-[(6-methoxy-2-methyl-1,2,3,4-tetrahydroisoquinolin-7-yl)amino]-4-[(2,3,4-trifluorophenyl)amino] pyrimidine-5-carboxamide]
1.62	COc1cc2c(cc1Nc1ncc(C(N)=O)c(Nc3ccccc3C(F)(F)F)n1)C(C1CC1)N(C)CC2 (single isomer, unassigned) [Example 20-1, 2-((1-cyclopropyl-6-methoxy-2-methyl-1,2,3,4-tetrahydroisoquinolin-7-yl)amino)-4-((2-(trifluoromethyl)phenyl)amino)pyrimidine-5-carboxamide]
1.59	COc1cc2c(cc1Nc1ncc(C(N)=O)c(Nc3cccc(CNC(=O)OC(C)(C)C)c3)n1)CN(C)CC2 [Example 2-1, tert-butyl {[3-({5-carbamoyl-2-[(6-methoxy-2-methyl-1,2,3,4-tetrahydroisoquinolin-7-yl)amino]pyrimidin-4-yl}amino)phenylmethyl} carbamate]
0.54	CC(N)c1cccc(Nc2nc(Nc3cc4c(cc3Cl)CCN(C)C4)ncc2C(N)=O)c1 (stereo not shown) [Example 2-6, 4-{[3-(1-aminoethyl)phenyl]-amino}-2-[(6-chloro-2-methyl-1,2,3,4-tetrahydroisoquinolin-7-yl)amino]pyrimidine-5-carboxamide]
0.35	COc1cc2c(cc1Nc1ncc(C(N)=O)c(Nc3cccc(CO)c3)n1)CN(C)CC2 [Example 1-1, 4-((3-(Hydroxymethyl)phenyl)amino)-2-((6-methoxy-2-methyl-1,2,3,4-tetrahydroisoquinolin-7-yl)amino)pyrimidine-5-carboxamide]
0.33	COc1cc2c(cc1Nc1ncc(C(N)=O)c(Nc3ccccc3Br)n1)CN(C1CC(CO)C1)CC2 (single isomer, unassigned) [Example 9-3, 4-((2-bromophenyl)amino)-2-((2-(3-(hydroxymethyl)cyclobutyl)-6-methoxy-1,2,3,4-tetrahydroisoquinolin-7-yl)amino)pyrimidine-5-carboxamide]
0.28	COc1cc2c(cc1Nc1ncc(C(N)=O)c(Nc3ccccc3C(F)(F)F)n1)CN(C)C(C)C2 (racemic) [Example 23-3, (RAC)-2-((6-methoxy-2,3-dimethyl-1,2,3,4-tetrahydroisoquinolin-7-yl)amino)-4-((2-(trifluoromethyl)phenyl)amino)pyrimidine-5-carboxamide]
0.25	COc1cc2c(cc1Nc1ncc(C(N)=O)c(Nc3cccc(C(C)N)c3)n1)CN(C)CC2 (stereo not shown) [Example 2-5, 4-{[3-(1-aminoethyl)phenyl]-amino}-2-[(6-methoxy-2-methyl-1,2,3,4-tetrahydroisoquinolin-7-yl)amino]pyrimidine-5-carboxamide]
0.24	CC(N)c1cccc(Nc2nc(Nc3cc4c(cc3F)CCN(C)C4)ncc2C(N)=O)c1 (stereo not shown) [Example 2-7, 4-{[3-(1-aminoethyl)phenyl]-amino}-2-[(6-fluoro-2-methyl-1,2,3,4-tetrahydroisoquinolin-7-yl)amino]pyrimidine-5-carboxamide]
0.12	COc1cc2c(cc1Nc1ncc(C(N)=O)c(Nc3c(F)cccc3Br)n1)CN(C)CC2 [Example 4-4, 4-[(2-bromo-6-fluorophenyl)amino]-2-[(6-methoxy-2-methyl-1,2,3,4-tetrahydroisoquinolin-7-yl)amino]pyrimidine-5-carboxamide]
0.11	Cc1cccc(F)c1Nc1nc(Nc2cc3c(cc2F)CCN(C)C3)ncc1C(N)=O [Example 4-6]
0.1	COc1cc2c(cc1Nc1ncc(C(N)=O)c(Nc3c(F)ccc(C)c3Cl)n1)CN(C)CC2 [Example 4-16]
